These results are taken from patent publication US20210254001A1, “FcyRIIIa signaling generates Bcl6+PD1+CD4+ Tfh-like cells” (priority 2020, published 2021).

Entries after “also recorded” stand apart in the source; their conditions may differ.

This experiment concerns purified human CD4+ T cells. The experiment can be described thus: IL-21 production in IC-treated CD4+ T cells with Syk inhibitor. The class given is cell-based. As to conditions: P505 10 nM; cells producing IL-21 from IC treatment; FIG. 4F (A).

As to `NC(=O)c1cnc(N[C@@H]2CCCC[C@@H]2N)nc1Nc1cccc(-n2nccn2)c1` [P505], the IL-21 production entry is “IL-21 production is blocked; also recorded: inhibits IL-21 production”.
